Measurements as given in patent US20190336537A1, “GENERATING ATRIAL AND VENTRICULAR CARDIOMYOCYTE LINEAGES FROM HUMAN PLURIPOTENT STEM CELLS” (UNIVERSITY HEALTH NETWORK, priority 2016, published 2019).

Legend:
[1] = system: HES3 NKX2-5:GFP reporter hESC line derived cardiomyocytes; assay: qRT-PCR analysis of atrial and ventricular gene expression in day 20 hPSC-derived cardiomyocytes; assay type: cell-based, human
Method: To determine if retinoic acid signaling can specify an atrial fate in hPSC-derived cardiogenic populations generated with our embryoid-body (EB)-based protocol, all trans retinoic acid (RA) was added to the differentiation cultures at 4 different time points that represent the following developmental stages: mesoderm induction (day 3), cardiovascular specification (day 5), cardiac progenitor development (day 7) and emergence of contracting cardiomyocytes (day 9) (Kattman et al., 2011) (FIG. 1A). The HES3 NKX2-5: GFP reporter hESC line was used for these experiments to allow us to monitor and quantify cardiovascular development and to isolate GFP+ cardiomyocytes. At day 20 of culture, GFP+SIRPA+CD90− cardiomyocytes were isolated from the differentiated populations and analyzed by RTqPCR for expression of genes indicative of atrial and ventricular development. (FIGS. 1B-D and 8B-E).
(§1) For cardiac differentiation, we used a modified version of our embryoid body (EB)-based protocol (Kattman et al., 2011). hPSC populations at 80%-90% confluence were dissociated into single cells (TrypLE, ThermoFisher) and re-aggregated to form EBs in StemPro-34 media (ThermoFisher) containing penicillin/streptomycin (1%, ThermoFisher), L-glutamine (2 mM, ThermoFisher), trans-ferrin (150 μg/ml, ROCHE), ascorbic acid (50 μg/ml, Sigma), and monothioglycerol (50 μg/ml, Sigma), ROCK inhibitor Y-27632 (10 μM, TOCRIS) and rhBMP4 (1 ng/ml, R&D) for 18 h on an orbital shaker. At day 1, the EBs were transferred to mesoderm induction media consisting of StemPro-34 with above supplements (-ROCK inhibitor Y-27632) and rhBMP4, rhActivinA (R&D) and rhbFGF (5 ng/ml, R&D) at the indicated concentrations. At day 3, the EBs were harvested, washed with IMDM and transferred to cardiac mesoderm specification media consisting of StemPro-34, the Wnt inhibitor IWP2 (1 μM, TOCRIS) and rhVEGF (10 ng/mL, R&D). At day 5, the EBs were transferred to Stem Pro-34 with rhVEGF (5 ng/ml) for another 7 days and then to Stem Pro-34 media without additional cytokines for further 8 days. At day 20, HES3-NKX2-5gfp/w-derived cardiomyocytes were analyzed and isolated based on the expression of NKX2-5:GFP and SIRPa and a lack of CD90. Cardiomyocytes generated from non-transgenic hPSC lines were analyzed and isolated as SIRPa+CD90− populations. Media was changed every 3 days. Cultures were incubated in a low oxygen environment (5% CO2, 5% O2, 90% N2) for first 12 days and a normoxic environment (5% CO2) for the following 8 days in total of 20 days. The EBs were cultured in ultra-low attachment 6-well dishes (Corning) throughout the differentiation for maintaining suspension cultures.
Total RNA from hPSC-derived populations was isolated using RNAqueous-micro Kit including RNase-free DNase treatment (Ambion). RNA from dissected ventricular and atrial tissue of human fetal hearts was isolated using the TRIzol method (ThermoFisher) and treated with DNase (Ambion). Between 100 ng and […] of isolated RNA was reverse transcribed into cDNA using oligo (dT) primers and random hexamers and Superscript III Reverse Transcriptase (ThermoFisher). QRT-PCR was performed on an EP Real-Plex MasterCycler (Eppendorf) using QuantiFast SYBR Green PCR kit (QIAGEN). All experiments were prepared in duplicates and included a 10-fold dilution series of sonicated human genomic DNA standards ranging from 25 ng/ml to 2.5 μg/ml for evaluating the efficiency of PCR reaction and the copy number of each gene relative to the house keeping gene TBP. […]

[2] = system: HES2 human embryonic stem cell derived EBs; assay: ROH/RA response of HES2-derived EBs (day 20 flow cytometry and qRT-PCR); assay type: cell-based; conditions: treated days 3 to 5
Text: (§2) To determine if the approach for optimizing atrial and ventricular differentiation based on ALDH activity and CD235a expression is broadly applicable, we next used it to generate these cardiomyocyte populations from the HES2 human embryonic stem cell and the MSC-iPS1 induced pluripotent stem cell lines. Titration studies identified 5B/2A and 5B/6A as optimal for atrial and ventricular inductions, respectively, for HES2 cells and 4B/4A as optimal for ventricular induction for MSCiPSC1 cells (FIGS. 7A, 7B, 7E, and 7F; Mendeley http://dx.doi.org/10.17632/7z7d5v2c3w.1). Optimization of atrial induction from the MSC-iPSC1 cells was more challenging, as all cytokine combinations promoted the development of a substantial CD235a+ population. One interpretation of these patterns is that the MSC-iPS1 cells have a high level of endogenous Nodal/Activin A signaling, resulting in the development of some CD235a+ cells under all conditions. To test this, we added the Nodal/Activin A/transforming growth factor beta (TGF-beta) inhibitor SB-431542 (SB) from days 3 to 5 to cells induced with 4B/1A.
as §1, with “The EBs were cultured in ultra-low attachment 6-well dishes (Corning) throughout the differentiation for maintaining suspension cultures.” left out

[3] = system: HES3 NKX2-5:GFP hESC-derived mesoderm; assay: Specification of mesoderm populations to an atrial fate by ROH or RA (day 20 flow cytometry and qRT-PCR); assay type: cell-based, human; conditions: day 4, 5B/4A induced
[4] = system: HES3 NKX2-5:GFP reporter hESC line derived cardiomyocytes; assay: qRT-PCR analysis of atrial and ventricular gene expression in day 20 hPSC-derived cardiomyocytes; assay type: cell-based, human; remark: listed apart in the source
[5] = system: MSC-iPS1 induced pluripotent stem cell line derived EBs; assay: ROH/RA response of MSC-iPS1-derived EBs (day 20 flow cytometry and qRT-PCR); assay type: cell-based, human; conditions: treated days 3 to 5
Text: as §2
as §1, with “The EBs were cultured in ultra-low attachment 6-well dishes (Corning) throughout the differentiation for maintaining suspension cultures.” left out

[6] = RA added at days 3 and 5, day 20
[7] = day 3 RA-treated mesoderm versus non-treated

CC1=C(/C=C/C(C)=C/C=C/C(C)=C/C(=O)O)C(C)(C)CCC1 [RA, all trans retinoic acid] was tested, and the “expression of atrial ion channel gene KCNJ3” value [1, 6] was “upregulation”, the “expression of ventricular-specific gene MYL2” value [1, 6] was “significant reduction” and the “expression of pan-cardiomyocyte marker CTNT” value ([1]; RA added at different time points, 10B/6A induced, day 20) was “None of the RA treatments significantly altered”. The “expression of atrial markers NR2F2, TBX5, NPPA, MYL7, CACNA1D, KCNA5, GJA5” value [1, 7] was “reverse pattern”, the “expression of ventricular markers IRX4 and MYH7” value [1, 7] was “lower levels” and the “response of ALDH+ mesoderm (atrial expression profile)” value ([2]; HES2, 5B/2A induced) was “responded to both ROH and RA”. For the same compound, the “response of CD235a+ mesoderm (MLC2V content, MYL2, IRX4, KCNJ3, NR2F2)” value ([2]; HES2, 5B/6A induced) was “both responded to RA”, the “atrial specification (MLC2V+, IRX4, NPPA, KCNJ3, NR2F2)” value ([3]; CD235a+ALDH− fraction) was “responded to RA” and the “atrial specification (MLC2V+, IRX4, NPPA, KCNJ3, NR2F2)” value ([3]; CD235a−ALDH+ fraction) was “responded to RA”. The “expression of KCNJ3, CACNA1D and NR2F2 in VI versus AI cardiomyocytes” value ([4]; 4 mM RA) was “Comparable expression levels”, the “expression of ventricular genes MYL2 and IRX4 in the VI population” value ([4]; RA 1-2 mM) was “completely suppress” and the “expression of MYL2 and KCNJ3” value ([4]; RA added at later stages (days 7 and 12)) was “no effect”. The “expression level of KCNA5 in cardiomyocytes from VI EBs” value ([4]; RA increased from 0.5 to 1-2 mM) was “did increase”, the “expression of KCNJ3, CACNA1D and NR2F2 in VI cardiomyocytes to levels of AI cells” value ([4]; RA up to 2 mM) was “failed to increase” and the “response of ALDH+ mesoderm (atrial expression profile)” value ([5]; MSC-iPS1, 4B/1A+SB induced) was “responded to both ROH and RA”. The “response of CD235a+ mesoderm (MLC2V content, MYL2, IRX4, KCNJ3, NR2F2)” value ([5]; MSC-iPS1, 4B/4A induced) was “both responded to RA”.
